According to publication PMC12040169 (PLOS Biology, 2025):

Assay: in vitro
Settings: human, hela cells, % viability

Row | Compound | viability at 28.5 h, 10 µM [%]
1 | O=S(=O)(Nc1nnn[nH]1)c1ccc(-c2cnco2)s1 [CBK062394] | 109
2 | CCn1cc(-c2cncn2CCCC(C)(C)CO)cn1 [CBK281704] | 88.3
3 | O=C(Nc1cccc(-c2nc3ccccc3s2)c1)c1ccc(S(=O)(=O)N2CCCC2)cc1 [CBK261787] | 96.7
4 | Cc1nnc(SCC(=O)NC(C)(C)C)n1NCc1cccc(Br)c1 [CBK266517] | 101
5 | CN1C[C@H](C(N)=O)[C@@H](c2ccc(CN(C)C(=O)c3cccc(Oc4ccccc4)c3)cc2)C1 [CBK285572] | 114
6 | c1ccc(-c2nc(C3CCCC3)n3ccccc23)cc1 [CBK149260] | 93.3
7 | COC(=O)c1ccc(/C=C/C2=CCN(C)CC2)cc1 [CBK283744] | 94.5
8 | SC1=NC2(CCCC2)NN1c1ccc(Cl)cc1 [CBK288391] | 83.2
9 | CCc1noc(C)c1C(=O)N1CCN(C(C#N)C2CCCCC2)CC1 (stereo not shown) [CBK304916] | 88.8
10 | COc1ccccc1-c1nccnc1N[C@H]1CCN(Cc2ccccc2)C1 [CBK037626] | 94.4
11 | CCCN1CC(NS(=O)(=O)c2cc(-n3cccn3)ccc2OC)CC1=O (stereo not shown) [CBK307285] | 107
12 | O=C(CN1C(=O)N2CCCN=C2c2ccccc21)N1CCCCC1 [CBK284395] | 85.8
13 | O=C(CSc1nc(-c2ccccc2)cc(=O)[nH]1)NCc1ccccc1 [CBK287734] | 82.7
14 | CC(=O)Nc1ccc(C(=O)N2CCCC(c3cccc(Cc4ccc(Cl)cc4)n3)C2)cc1 (stereo not shown) [CBK286134] | 99.9
15 | Cc1sc(NC(=O)c2ccccc2)c(C(Nc2ccccn2)c2ccc(F)cc2)c1C (stereo not shown) [CBK296957] | 89.7
16 | C=CCN1CCC(C(=O)NC(C)c2ccc(OC)c(OC)c2)CC1 (stereo not shown) [CBK148924] | 91.1
17 | COCCNc1nc(-c2cccc(F)c2)cn2ccnc12 [CBK066465] | 98.4
18 | N#Cc1c(Nc2cccc(F)c2)sc2c(O)cc(O)nc12 [CBK270250] | 100
19 | CC(O)c1nc2ccccc2n1C (stereo not shown) [CBK115560] | 94.9
20 | COc1ccc(CN2CC[C@@H]3[C@H](C2)[C@@H](c2ccc(F)cc2)CN3C(=O)c2ccccc2)cc1 [CBK286290] | 92.3
21 | COC(=O)c1cc(-c2c[nH]c3ccccc23)[nH]n1 [CBK241010] | 92.5

Row | Compound | viability at 28.5 h, 10 µM [%]
22 | O=C(O)CN1C(=O)CC2(C1=O)C(=O)N(Cc1ccccc1)c1ccccc12 (stereo not shown) [CBK076093] | 116
23 | Cc1ccc(C(=O)NCc2cccc(COCc3ccco3)c2)cc1F [CBK297750] | 83.5
24 | O=C1CC2(CCN(C(=O)c3ccccc3F)CC2)Oc2c(Cl)cc(Cl)cc21 [CBK156453] | 91.8
25 | O=C(NCc1ccncc1)c1ccc(-n2ccnc2)c(-n2cccc2)c1 [CBK285367] | 88.4
26 | CCOC(=O)c1cnn(-c2ccccc2)c1NS(=O)(=O)c1cccc(Cl)c1C [CBK024055] | 84.6
27 | O=c1/c(=C/c2ccncc2)sc2n1CN(c1cccc(F)c1)CN=2 [CBK264340] | 99.2
28 | O=C(CCn1c2ccccc2c2ccccc21)N1CCn2cnnc2C1 [CBK283645] | 90.4
29 | CC(=O)c1cc(C(=O)N(C)CCOc2ccccc2)cs1 [CBK282560] | 99.6
30 | COc1ccc(-c2nc(NC(=O)c3ccncc3)cnc2-c2ccc(F)c(Cl)c2)cc1 [CBK036663] | 88.6
31 | CC(C)(C)c1cn(C[C@H]2CC3CCN2C[C@@H]3C(=O)N2CCOCC2)nn1 (stereo partly shown) [CBK288735] | 87.8
32 | CCCc1cc(C(=O)NC(c2ccccc2)c2cccnc2)[nH]n1 (stereo not shown) [CBK282462] | 93.8
33 | CCC1CCCCN1C(=O)Cn1cnc2c(Cl)cc(Cl)cc2c1=O (stereo not shown) [CBK305833] | 90
34 | COc1ccc(C(NC(=O)CCc2ccccc2)c2ccc3cccnc3c2O)cc1 (stereo not shown) [CBK293942] | 86
35 | COc1ccccc1N1CCN(c2nccc3sc(S(=O)(=O)NC4CCC4)cc23)CC1 [CBK038248C] | 87.7
36 | COc1ccc(/C=C(/NC(=O)/C=C/c2ccccc2)C(=O)O)cc1 [CBK264996] | 94.8
37 | COCC(=O)N1CCC(Oc2ccc3ncccc3c2)(C(=O)O)CC1 [CBK307340] | 103
38 | COc1ccc(F)cc1-c1ccccc1CC1(C(=O)NCc2cccs2)CCOCC1 [CBK286416] | 93.7
39 | COc1ccc(NC(=O)c2cc3nc(C)ccc3o2)cc1 [CBK287663] | 102
40 | O=C1CC(C(=O)Nc2ccccc2)n2cnnc2N1 (stereo not shown) [CBK287980] | 112
41 | O=C(O)COc1cccc2ccccc12 [CBK218704] | 106
42 | Cc1nc2c(c(=O)[nH]1)CN(Cc1cccc(Oc3ccccc3)c1)CC2 [CBK283951] | 104

Row | Compound | viability at 28.5 h, 10 µM [%]
43 | CCOC(=O)C1(C2CCCCC2)CCN(C(=O)c2cc(C)[nH]n2)CC1 [CBK137100] | 96.2
44 | Brc1nc2c3c(nc(N4CCOCC4)c2s1)CCCC3 [CBK019604] | 83.4
45 | CS(=O)(=O)Nc1ccc(CNC(=O)C2(c3ccccc3)CCCC2)cc1 [CBK161525] | 101
46 | O=C1c2ccccc2C(=O)N1c1ccccn1 [CBK113682] | 99.5
47 | c1ccc(CSc2ccc(-c3ccncc3)nn2)nc1 [CBK287638] | 101
48 | Nc1nc(SCc2cccc([N+](=O)[O-])c2)n[nH]1 [CBK268688] | 105
49 | Cc1ccc(C)c(NC(=O)CCc2c(C)nn3cnnc3c2C)c1 [CBK304358] | 90
50 | CC(=O)Nc1ccc(NC(=O)c2ccc(-c3ccc([N+](=O)[O-])cc3)o2)cc1 [CBK266220] | 99.8
51 | O=S(=O)(Nc1ncc(Br)c2cccnc12)c1ccc(Cl)c(Cl)c1 [CBK073888] | 89.5
52 | O=C(Cn1c(NCCO)nc2ccccc21)c1ccc([N+](=O)[O-])cc1 [CBK262139B] | 100
53 | CSc1nnc(C2CCCN2C(=O)[C@@H]2C[C@@H]3C=C[C@H]2C3)n1C (stereo partly shown) [CBK282012] | 79.8
54 | O=c1[nH]c2ncc(-c3cncc4ccccc34)nc2n1CCCO [CBK064814] | 96
55 | NC(=O)c1ccnc(Cl)c1 [CBK089827] | 96
56 | Cc1cc2c(cc1C)C(O)CC1(CCN(C(=O)c3ccco3)CC1)O2 (stereo not shown) [CBK282839] | 84
57 | O=c1cc(C(F)F)c2cn(C3CCCC3)nc2[nH]1 [CBK288016] | 91.8
58 | CC(C)NC(=O)Nc1ccc(C(=O)N(CCC#N)C(C)C2CC2)cc1 (stereo not shown) [CBK305312] | 110
59 | O=C1COc2ccccc2CCCCC2(CCCN(C(=O)CN3CCCC3=O)C2)CN1 (stereo not shown) [CBK291992] | 105
60 | Cc1cc(C)n(-c2cccc(C(=O)NCCn3ccnc3)c2)n1 [CBK281585] | 109
61 | Cn1cc(N2CCCC(NC(=O)Nc3cccc(C#N)c3)C2)cn1 (stereo not shown) [CBK305179] | 91.3
62 | CC1=CC(C)(NC(N)=O)NC(=S)N1 (stereo not shown) [CBK020817] | 112
63 | O=C1COc2ccccc2C/C=C/CC2(CCCN(C(=O)Cn3ccnc3)C2)CN1 (stereo not shown) [CBK292050] | 107

Row | Compound | viability at 28.5 h, 10 µM [%]
64 | CCc1cccc(C)c1NC(=O)C1C2CCC(O2)C1C(=O)O (stereo not shown) [CBK263676] | 88.1
65 | O=C(CSCc1nc2ccccc2[nH]1)Nc1cccc(C(F)(F)F)c1 [CBK268474] | 101
66 | c1cncc(C2N3CCC4(CC3)c3[nH]c5ccccc5c3CCN24)c1 (stereo not shown) [CBK284430] | 92.8
67 | Cc1ccn2cc(CNC(=O)CN3CCOc4ccccc4C3)nc2c1 [CBK307518] | 84.6
68 | Cc1ccc2[nH]c3c(c2c1)CCOC31CCN(Cc2ccccc2-c2ccccc2)CC1 [CBK039915] | 89.1
69 | Cc1nn(CC(=O)OC2CCCCC2)c(=O)c2cc3ccsc3n12 [CBK284058] | 82.5
70 | O=c1[nH]c2ncc(-c3cccnc3)nc2n1Cc1ccc(Cl)cc1 [CBK064561] | 98.3
71 | COc1cc(/C=N/NC(=O)c2n[nH]c3c2CCC3)ccc1O [CBK262881] | 109
72 | O=C1CSC(c2cn(-c3ccccc3)nc2-c2ccc(Br)cc2)N1Cc1ccccc1 (stereo not shown) [CBK263146] | 97.4
73 | Cc1cc(C)n(C(=O)c2cn3cc(Cl)ccc3n2)n1 [CBK288185] | 98.6
74 | CCN1CCN(C(=O)CN(Cc2ccccc2)S(=O)(=O)c2c(C)cc(C)cc2C)CC1 [CBK266670] | 98.1
75 | CC1CCN(Cc2c(C3CCNCC3)[nH]c3ncccc23)CC1 [CBK285022] | 91.7
76 | C#CCN(C1CCc2ccccc21)S(=O)(=O)c1cc(C(N)=O)n(C)c1 (stereo not shown) [CBK304287] | 95.1
77 | O=C(O)C1CSC(c2ccc([N+](=O)[O-])cc2)N1 (stereo not shown) [CBK260909] | 103
78 | CC(=O)Nc1ccc(N2CC34C=CC(O3)C(C(=O)O)C4C2=O)cc1 (stereo not shown) [CBK287020] | 100
79 | CCn1cc(S(=O)(=O)Nc2ccc3c(ccn3C)c2)c(C)n1 [CBK282818] | 84.2
80 | FC(F)(F)Oc1ccc(-c2c[nH]c([C@@H]3COCCN3C3CCNCC3)n2)cc1 [CBK289312] | 97.8
81 | Cn1c(=O)c2c(nc(NCc3ccccc3)n2C)n(C)c1=O [CBK139872] | 95.9
82 | Cc1cc(NC(=O)CCC2CCCCC2)nc2c1c(=O)oc1ccccc12 [CBK291125] | 111
83 | CCOC(=O)Cc1csc(NS(=O)(=O)c2cn(C)cn2)n1 [CBK000888] | 112
84 | COC(=O)c1ccccc1NC(=O)CNS(=O)(=O)c1c(C)cc(C)cc1C [CBK265974] | 104

Same assay, conditions: human, hela cells, % viability, bulk resorufin, single well

Row | Compound | viability at 28.5 h, 10 µM [%]
85 | O=C(CCC1C(=O)NC(=O)NC1=O)Nc1cccc(-c2nc3ccccc3s2)c1 [CBK285844] | 105
86 | COc1cc(/C=C2\C(=O)NC(=O)N(c3ccc(O)cc3)C2=O)cc(I)c1O [CBK264298] | 114
87 | CCOC(=O)C1(c2ccccc2)CCN(C(=O)c2cccc3[nH]ccc23)CC1 [CBK132193] | 95.7
88 | COc1cc(C=C2C(=O)NC(=S)NC2=O)ccc1OCc1c(C)no[n+]1[O-] [CBK263467] | 95.8
